Laboratory results taken from ChEMBL document CHEMBL4834428 (J Med Chem, 2021).

Assays:
[1] = molecular target: T1, NAD-dependent protein deacetylase sirtuin-2 (Homo sapiens, UniProt Q8IXJ6); experiment: Inhibition of His6-tagged/TEV fused SIRT2 (unknown origin) expressed in Escherichia coli BL21 (DE3) preincubated for 15 mins followed by NAD+ addition and measured after 30 mins by FLucK529Ac based luminescence assay
T1 sequence (Q8IXJ6 whole entry): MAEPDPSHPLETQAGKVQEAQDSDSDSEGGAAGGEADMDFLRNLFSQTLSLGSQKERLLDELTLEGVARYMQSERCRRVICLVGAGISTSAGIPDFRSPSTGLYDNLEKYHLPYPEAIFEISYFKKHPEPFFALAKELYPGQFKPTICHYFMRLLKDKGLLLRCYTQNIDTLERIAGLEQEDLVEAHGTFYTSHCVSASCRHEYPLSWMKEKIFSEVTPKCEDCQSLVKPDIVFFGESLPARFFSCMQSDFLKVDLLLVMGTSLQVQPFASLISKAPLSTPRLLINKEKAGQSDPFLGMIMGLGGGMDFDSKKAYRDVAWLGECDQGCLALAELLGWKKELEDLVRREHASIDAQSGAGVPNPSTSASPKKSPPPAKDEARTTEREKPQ

[2] = molecular target: T2, NAD-dependent protein deacetylase sirtuin-3, mitochondrial (Homo sapiens, UniProt Q9NTG7); experiment: Inhibition of His6-tagged/TEV fused SIRT3 (unknown origin) expressed in Escherichia coli BL21 (DE3) preincubated for 15 mins followed by NAD+ addition and measured after 30 mins by FLucK529Ac based luminescence assay
T2 sequence (Q9NTG7 whole entry): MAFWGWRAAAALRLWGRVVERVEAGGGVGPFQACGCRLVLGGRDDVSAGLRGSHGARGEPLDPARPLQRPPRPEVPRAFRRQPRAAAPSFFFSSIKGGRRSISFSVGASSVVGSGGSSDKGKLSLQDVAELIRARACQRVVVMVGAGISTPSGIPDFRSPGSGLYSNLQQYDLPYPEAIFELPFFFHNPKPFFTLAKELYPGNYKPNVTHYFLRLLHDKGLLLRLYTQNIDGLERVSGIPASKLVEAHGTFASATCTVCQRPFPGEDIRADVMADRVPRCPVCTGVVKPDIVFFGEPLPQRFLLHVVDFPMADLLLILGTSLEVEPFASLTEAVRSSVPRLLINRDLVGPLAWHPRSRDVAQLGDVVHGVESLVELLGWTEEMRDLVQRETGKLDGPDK

[3] = molecular target: T3, NAD-dependent protein deacetylase sirtuin-1 (Homo sapiens, UniProt Q96EB6)
T3 sequence (Q96EB6 whole entry): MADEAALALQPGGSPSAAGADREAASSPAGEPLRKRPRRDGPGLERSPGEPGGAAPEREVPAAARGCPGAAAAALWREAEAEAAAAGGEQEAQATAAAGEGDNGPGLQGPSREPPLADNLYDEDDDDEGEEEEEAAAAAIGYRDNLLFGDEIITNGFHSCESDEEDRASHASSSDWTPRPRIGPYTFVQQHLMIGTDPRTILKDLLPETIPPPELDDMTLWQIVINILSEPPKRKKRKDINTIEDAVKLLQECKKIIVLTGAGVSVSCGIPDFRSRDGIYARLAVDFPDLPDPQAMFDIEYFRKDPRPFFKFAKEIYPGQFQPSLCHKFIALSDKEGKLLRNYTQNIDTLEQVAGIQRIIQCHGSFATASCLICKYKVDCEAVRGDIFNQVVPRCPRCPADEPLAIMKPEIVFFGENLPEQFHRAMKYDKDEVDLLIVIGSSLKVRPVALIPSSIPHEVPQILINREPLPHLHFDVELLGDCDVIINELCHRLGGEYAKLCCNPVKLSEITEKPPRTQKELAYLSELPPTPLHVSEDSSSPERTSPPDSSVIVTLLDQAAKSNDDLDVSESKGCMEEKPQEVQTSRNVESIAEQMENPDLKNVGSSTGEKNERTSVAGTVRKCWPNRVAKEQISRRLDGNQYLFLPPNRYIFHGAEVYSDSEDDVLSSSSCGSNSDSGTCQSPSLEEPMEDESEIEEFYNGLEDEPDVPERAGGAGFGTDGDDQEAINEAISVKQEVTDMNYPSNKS
Description: Inhibition of His6-tagged SIRT1 (unknown origin) expressed in Escherichia coli BL21 (DE3) preincubated for 15 mins followed by NAD+ addition and measured after 30 mins by FLucK529Ac based luminescence assay

Row | SMILES | IC50 [1] [µM] | IC50 [2] [µM] | IC50 [3] [µM]
1 | NC(=O)C1CNc2ccccc2O1 (stereo not drawn) | > 60 | > 60 | > 60
2 | NC(=O)C1CN(Cc2ccc(C(F)(F)F)cc2)c2ccccc2O1 (stereo not drawn) | 22.8 | > 60 | 28.5
3 | N#Cc1cccc(CN2CC(C(N)=O)Oc3ccccc32)c1 (stereo not drawn) | 11.2 | > 60 | 0.43
4 | Cc1ccccc1CN1CC(C(N)=O)Oc2ccccc21 (stereo not drawn) | 22.2 | > 60 | 2.49
5 | CC(=O)Nc1cccc(CN2CC(C(N)=O)Oc3ccccc32)c1 (stereo not drawn) | > 60 | > 60 | 2.4
6 | NC(=O)C1CN(Cc2ccccc2I)c2ccccc2O1 (stereo not drawn) | > 60 | > 60 | 0.47
7 | COc1ccc(C(=O)N2CC(C(N)=O)Oc3ccccc32)cc1 (stereo not drawn) | > 60 | – | > 60
8 | COC(=O)c1ccc(CN2CC(C(N)=O)Oc3ccccc32)cc1 (stereo not drawn) | > 60 | > 60 | 3.45
9 | CC(=O)Nc1ccc(CN2CC(C(N)=O)Oc3ccccc32)cc1 (stereo not drawn) | > 60 | > 60 | 10.4
10 | NC(=O)C1CN(Cc2cn(Cc3ccccc3)nn2)c2ccccc2O1 (stereo not drawn) | 41.9 | > 60 | 8.05
11 | NC(=O)C1CN(Cc2ccccc2N)c2ccccc2O1 (stereo not drawn) | 36.1 | > 60 | 4.91
12 | NC(=O)C1CN(Cc2ccccc2[N+](=O)[O-])c2ccccc2O1 (stereo not drawn) | 10.6 | > 60 | –
13 | CC(=O)Nc1ccccc1CN1CC(C(N)=O)Oc2ccccc21 (stereo not drawn) | > 60 | > 60 | 31.6
14 | NC(=O)C1CN(Cc2ccc3nonc3c2)c2ccccc2O1 (stereo not drawn) | 0.6 | > 60 | > 60
15 | NC(=O)C1CN(Cc2ccc3c(c2)OCO3)c2ccccc2O1 (stereo not drawn) | 26 | > 60 | 1.9
16 | NC(=O)C1CN(Cc2ccccc2F)c2ccccc2O1 (stereo not drawn) | 35.4 | > 60 | 1.77

Row | SMILES | IC50 [1] [µM] | IC50 [2] [µM] | IC50 [3] [µM]
17 | NC(=O)C1CN(Cc2cccnc2)c2ccccc2O1 (stereo not drawn) | 58 | > 60 | 4.7
18 | CC(C)(C)OC(=O)c1ccc(CN2CC(C(N)=O)Oc3ccccc32)cc1 (stereo not drawn) | 42 | > 60 | 20.1
19 | NC(=O)C1CN(Cc2ccccc2Cl)c2ccccc2O1 (stereo not drawn) | 33.6 | > 60 | 0.67
20 | NC(=O)C1CN(Cc2csc(N)n2)c2ccccc2O1 (stereo not drawn) | > 60 | > 60 | 1.48
21 | CCOC(=O)C1CNc2ccccc2O1 (stereo not drawn) | > 60 | > 60 | > 60
22 | O=C(O)C1CNc2ccccc2O1 (stereo not drawn) | > 60 | > 60 | > 60
23 | CC(=O)Nc1nc(CN2CC(C(N)=O)Oc3ccccc32)cs1 (stereo not drawn) | > 60 | – | 0.62
24 | NC(=O)C1CN(Cc2cnnn2Cc2ccccc2)c2ccccc2O1 (stereo not drawn) | 32.6 | > 60 | 14.1
25 | C#CCN1CC(C(N)=O)Oc2ccccc21 (stereo not drawn) | > 60 | > 60 | > 60
26 | NC(=O)C1CN(Cc2ccccc2C(F)(F)F)c2ccccc2O1 (stereo not drawn) | 25 | > 60 | 0.97
27 | NC(=O)C1CN(Cc2ccccc2Br)c2ccccc2O1 (stereo not drawn) | 16.6 | > 60 | 0.56
28 | COc1ccc(CN2CC(C(N)=O)Oc3ccccc32)cc1 (stereo not drawn) | 31.8 | > 60 | 1.45
29 | NC(=O)C1CN(Cc2cccc([N+](=O)[O-])c2)c2ccccc2O1 (stereo not drawn) | 4.19 | > 60 | 0.23
30 | NC(=O)C1CN(Cc2ccccc2O)c2ccccc2O1 (stereo not drawn) | 12.3 | > 60 | 0.82
31 | CC(C)(C)OC(=O)Nc1nc(CN2CC(C(N)=O)Oc3ccccc32)cs1 (stereo not drawn) | > 60 | > 60 | 5.63
32 | NC(=O)C1CN(Cc2ccccn2)c2ccccc2O1 (stereo not drawn) | > 60 | > 60 | 2.1
